In US8795611B2 (priority 2009, dated 2014):
≈ marks a conversion by molar mass, not a printed value.

Assays:
[1] = Solubility of DEHiBA in an aqueous phase by total organic carbon (TOC) measurement, test in mixers-decanters; format: physicochemical; details: for DEHiBA equivalent: assumes all organic carbon stems from the extractant
Text: The solubility of DEHiBA in an aqueous phase was appreciated by conducting a test in mixers-decanters similar to the one described in Example 1 hereinbefore and by measuring the total organic carbon (or TOC) present in the aqueous phase exiting the battery 11 (called <<extraction raffinate>> hereafter) on the one hand and, in the aqueous phase exiting the battery 13 and containing the purified uranyl nitrate (called <<U production>> hereafter) on the other hand.
The total organic carbon was measured by means of a thermal TOC-meter in the aqueous phases as obtained after decantation, i.e. without submitting these phases to any centrifugation.

[2] = Distribution coefficient, single contact in tubes, 1.5 mol/L DEHiBA in Isane IP 185 vs nitric acid solutions (ICP-AES); format: physicochemical; details: HNO3 0.5 to 4 M, 25° C.
[3] = as above; format: physicochemical; details: HNO3 0.5 to 4 M, 25° C.; remark: listed apart in the source
[4] = format: physicochemical; details: 1.5 mol/L DEHiBA in Isane IP 185, HNO3 0.5 to 4 M, 25° C.
[5] = Distribution coefficient, single contact in tubes, 1.5 mol/L DEHiBA in Isane IP 185 vs nitric acid solutions (ICP-AES); format: physicochemical; details: HNO3 0.5 to 4 M, 25° C.; remark: listed apart in the source
[6] = as above; format: physicochemical; details: HNO3 0.5 to 4 M, 25° C.; remark: listed apart in the source
[7] = as above; format: physicochemical; details: nitric acid 4 mol/L, regardless of the uranium concentration, 25° C.
[8] = format: physicochemical; details: 1.5 mol/L DEHiBA in Isane IP 185; aqueous 360 g/L uranium, 2 mol/L nitric acid; even after uranium depletion; 25° C.
[9] = with or without 30 g/L uranium, 1 hour

CCCCC(CC)CN(CC(CC)CCCC)C(=O)C(C)C (stereo not drawn) [DEHiBA, N,N-di-(2-ethylhexyl)isobutyramide]
DEHiBA equivalent ([1]; U production, HNO3 0.34 mol/L): 0.00019 mol/L | solubility ([1]; aqueous phase after decantation, under the conditions of the test, includes diluent (TPH) and carried-away organic phase, read-out: DEHiBA soluble in an aqueous phase): 40 to 60 µg/mL (≈ 128 to 193 µM) | DEHiBA equivalent ([1]; extraction raffinate, HNO3 3.1 mol/L): 0.00013 mol/L | U/impurities separation factor (molybdenum) [2]: greater than 10,000 | distribution coefficient of molybdenum [2, 9]: less than 10^−3 | U/impurities separation factor (zirconium) [3]: greater than 10,000 | distribution coefficient of zirconium [3, 9]: less than 10^−3 | U/impurities separation factor (iron) [4]: greater than 10,000 | distribution coefficient of iron [4, 9]: less than 10^−3 | U/impurities separation factor (calcium) [5]: greater than 10,000 | distribution coefficient of calcium [5, 9]: less than 10^−3 | U/impurities separation factor (vanadium) [6]: greater than 10,000 | distribution coefficient of vanadium [6, 9]: less than 10^−3 | distribution coefficient of thorium(IV) [7]: less than 5.10^−3 | distribution coefficient of thorium 234, DTh [8]: less than 10^−2
